Consider one molecule from ChEMBL document CHEMBL1141855, “Trypargine alkaloids from a previously undescribed Eudistoma sp. ascidian” (J Nat Prod, 1999).

The nature of the series: Toxicity in iv dosed mouse. It counts as organism-based. To be noted: in vivo.

In turn, `N=C(N)NCCCC1NCCc2c1[nH]c1ccccc21` (stereo unspecified) [TRYPARGINE] came in with a 50% lethal dose (LD50) of 16.9 mg/kg.
